Each structure is given as a SMILES string. Counter-ions that a name gives are not always drawn.

From patent EP0826686A2, “Tricyclic compounds, their production and use” (TAKEDA CHEMICAL INDUSTRIES, LTD., priority 1996, dated 1998) come the findings set out here.

The test system of experiment [1] is Human skin fibroblasts (Hs68). Nature of the experiment: PDGF-induced proliferation in Hs68 cells (3H-thymidine uptake). Type of experiment: cell-based. The conditions noted are these: PDGF-BB 5 ng/ml, 24 hours; for inhibition at 1 µM: Concentration 1x10^-6 M; for inhibition at 3 µM: Concentration 3x10^-6 M; for inhibition at 0.3 µM: Concentration 3x10^-7 M. On the procedure:
Experiments of PDGF-induced proliferation in Hs68 cells Method: Human skin fibroblasts (Hs68, Institute for Fermentation, Osaka) were seeded in 48-well plates precoated with collagen type I (Falcon) (25000 cells/well), and cultured for one day. Then, the cells were cultured in Dulbecco's modified Eagle's medium (high glucose) containing 0.1% bovine serum albumin for 48 hours. Fifteen (15) minutes after the addition of the drug, the cells were stimulated with 5 ng/ml of PDGF-BB (Becton Dickinson Labware) containing ^3H-thymidine (final concentration 0.4 mCi/ml) (Amersham). After 24 hours, the reaction was stopped with 7.5% trichloroacetic acid at 4°C and the plate was allowed to stand at 4°C for 30 minutes. The cells were washed with Ca^2+- and Mg^2+-free phosphate-buffered saline (PBS), after then 0.1% sodium dodecyl sulfate (SDS)/0.4N NaOH was added and the plate was allowed to stand at 37°C for 1 hour to lyze the cells. The whole content of each well was taken in a vial and neutralized with 1N HCl, and then toluene scintillator (Wako Pure Chemical Ind.) was added to each vial. After stirring, the amount of ^3H-thymidine incorporated in the cells was determined with a liquid scintillation counter. The cellular uptake of ^3H-thymidine was used as an indicator of cell proliferation. The effect of the drug on the PDGF-BB (5 ng/ml) uptake of ^3H-thymidine was expressed as % inhibition. […]

The test system of experiment [2] is Glomerular mesangial cells. Nature of the experiment: Inhibition of the proliferation of mesangial cells (PDGF-BB stimulated, 3H-thymidine uptake). To be noted: Rattus norvegicus, Glomerular mesangial cell, 24 h, PDGF-BB 5 ng/ml, read-out: Proliferation inhibiting activity (% Inhibition); for inhibition at 1 µM: Dose 10^-6 M; for inhibition at 3 µM: Dose 3 x 10^-6 M. Type of experiment: cell-based, Sprague-Dawley rats. On the procedure:
Glomerular mesangial cells isolated from 4-week-old male Sprague-Dawley rats (Japan Clea) were cultured in a 24-well plate (Falcon) up to the subconfluence. The cells were subsequently cultured in Dulbecco's modified Eagle MEM containing 0.2% bovine serum albumin for 24 - 48 hours before addition of a drug substance. Fifteen minutes after the drug substance was added to the culture, the cells were allowed to react with 5 ng/ml of PDGF-BB (Becton Dickinson Labwere) for stimulation, simultaneously adding ^3H-Thymidine (final concentration 0.2 µ Ci/ml) (Amasham), for 24 hours. The reaction was blocked by adding 7.5 % TCA of 4°C. The mixture was allowed to stand at 4°C for 30 minutes. The cells were washed with phosphate buffered saline containing no Ca^2+ and Mg^2+. A 0.4N NaOH/0.1% sodium dodecyl sulfate (SDS) solution was added to the washed cells and the mixture was allowed to stand at 37°C for an hour to solubilize the cells. The whole qauntity was placed in a vial and neutralized with 1N HCl. Scintillator A (Wako Pure Chemicals) was added to this with stirring. The quantity of ^3H-Thymidine incorporated in the cells was measured by the liquid scintillation counter. The increase in the quantity of the incorporated ^3H-Thymidine was designated as the parameter of the cell proliferation. The inhibitory effect of a drug substance on the intake with PDGF-BB (5 ng/ml) was expressed as % inhibition (Table 1).

A further experiment deals with SHC rats. Nature of the experiment: Urinary protein excretion in SHC rats. Type of experiment: in vivo, Spontaneously hypercholesterolemic rats. To be noted: 1 mg/kg/day oral once daily. The source says:
Experiments of urinary protein excretion in SHC rats Method: Spontaneously hypercholesterolemic rats (male, 7 weeks old) were given a drug suspended in 0.5% methylcellulose (100 cP) by oral administration once daily for 6 weeks. A control group was given 0.5% methylcellulose (100 cP) by the same route once daily. As a normal control group, Sprague-Dawley rats (SD rats) (male, 7 weeks old, CLEA Japan, Inc.) were given 0.5% methylcellulose (100 cP) orally once daily. Before the start of medication and at 2-weeks intervals after the first administration of drugs, urine was collected for twenty four hours and the total protein and albumin excreted in the urine were determined. The assay of total protein and albumin was carried out using the A/GB Test Wako (Wako Pure Chemical Ind.).

[3] abbreviates: duration of administration 0 weeks (before start of medication).
Where [4] appears, read: duration of administration 2 weeks.
The mark [5] stands for this setting: duration of administration 4 weeks.
Where [6] appears, read: duration of administration 6 weeks.

In experiment [1], `O=c1c2cnc3cccc(n1CC1CCN(S(=O)(=O)C(F)(F)F)CC1)n32` [8(ii), 1,2-Dihydro-1-(1-trifluoromethanesulfonylpiperidin-4-ylmethyl)-1,4,7b-triazacyclopent[cd]inden-2-one] displayed an inhibition at 1 µM of 74.9%. Compound `O=C1c2cnc3cccc(n23)CN1CC1CCN(S(=O)(=O)C(F)(F)F)CC1` [11(iii), 4,5-Dihydro-4-(1-trifluoromethanesulfonylpiperidin-4-ylmethyl)-3H-1,4,8b-triazaacenaphthylen-3-one hydrochloride] had an inhibition at 3 µM in experiment [1] of 59.2%. Compound `O=C1c2cnc3cccc(n23)CN1CCC1CCN(S(=O)(=O)C(F)(F)F)CC1` [12(ii), 4,5-Dihydro-4-[2-(1-trifluoromethanesulfonylpiperidin-4-yl)ethan-1-yl]-3H-1,4,8b-triazaacenaphthylen-3-one] showed an inhibition at 1 µM in experiment [1] of 96.6%. The compound `Cc1nc2cccc3nc(SCCC4CCN(S(=O)(=O)C(F)(F)F)CC4)c1n23` [25(ii), 3-Methyl-2-[2-(1-trifluoromethanesulfonylpiperidin-4-yl)ethan-1-yl]thio-1,4,7b-triazacyclopent[cd]indene] had an inhibition at 0.3 µM in experiment [1] of 83.4%. Regarding `Cc1nc2cccc3n(CCC4CCN(S(=O)(=O)C(F)(F)F)CC4)c(=O)c1n23` [Compound 3, 1,2-dihydro-3-methyl-1-[2-(1-trifluoromethanesulfonylpiperidin-4-yl)ethan-1-yl]-1,4,7b-triazacyclopent[cd]inden-2-one hydrochloride], the inhibition at 0.3 µM in experiment [2] (Dose 3 x 10^-7 M) came to 39%. For the same compound, the inhibition at 1 µM in experiment [2] turned out to be 91.1%. `CC(C)(C)OC(=O)N1CCC(Cn2c(=O)c3cnc4cccc2n43)CC1` [Example 1, 1,2-Dihydro-1-(1-tert-butoxycarbonylpiperidin-4-ylmethyl)-1,4,7b-triazacyclopent[cd]inden-2-one]: the inhibition at 3 µM in experiment [2] is 39.4%. Turning to `CC(C)(C)OC(=O)N1CCC(CCn2c(=O)c3cnc4cccc2n43)CC1` [Example 2, 1,2-Dihydro-1-[2-(1-tert-butoxycarbonylpiperidin-4-yl)ethan-1-yl]-1,4,7b-triazacyclopent[cd]inden-2-one], in experiment [2], the inhibition at 3 µM stood at 40.1% and the inhibition at 1 µM was 11.1%. The inhibition at 10 µM in experiment [2] (Dose 10^-5 M) turned out to be 58.3%. `O=c1c2cnc3cccc(n1CCC1CCN(S(=O)(=O)C(F)(F)F)CC1)n32` [Example 9(ii), 1,2-dihydro-1-[2-(1-trifluoromethanesulfonylpiperidin-4-yl)ethan-1-yl]-1,4,7b-triazacyclopent[cd]inden-2-one] gave an inhibition at 0.3 µM in experiment [1] of 94.9%. For the same compound, the Urinary albumin came to 12.0 mg/day with SHC rats (setting [3]), 10.9 mg/day with SHC rats (setting [4]), 46.2 mg/day in the experiment with SHC rats (setting [5]) and 129.9 mg/day with SHC rats (setting [6]). In addition, the Urinary total protein came to 39.2 mg/day in the experiment on SHC rats (setting [3]), 50.4 mg/day in the experiment on SHC rats (setting [4]), 91.3 mg/day in the experiment on SHC rats (setting [5]) and 199.4 mg/day in the experiment with SHC rats (setting [6]). Consider `O=C1c2cccc3ncc(n23)CN1CCC1CCN(S(=O)(=O)C(F)(F)F)CC1` [Example 19, 4,5-Dihydro-4-[2-(1-trifluoromethanesulfonylpiperidin-4-yl)ethan-1-yl]-3H-1,4,8b-triazaacenaphthylen-5-one], for which, in experiment [1], the inhibition at 1 µM came to 72.8%. Turning to `Cc1nc2cccc3n(CCCC4CCN(S(=O)(=O)C(F)(F)F)CC4)c(=O)c1n23` [Example 23, 1,2-Dihydro-3-methyl-1-[3-(1-trifluoromethanesulfonylpiperidin-4-yl)propan-1-yl]-1,4,7b-triazacyclopent[cd]inden-2-one], the inhibition at 0.3 µM in experiment [1] is 44.6%. `Cc1nc2cccc3n(CCC4CCN(C(=O)C(F)(F)C(F)(F)F)CC4)c(=O)c1n23` [Example 27, 1,2-Dihydro-3-methyl-1-[2-(1-pentafluoropropionylpiperidin-4-yl)ethan-1-yl]-1,4,7b-triazacyclopent[cd]inden-2-one] had an inhibition at 1 µM in experiment [1] of 62.7%. Compound `Cc1nc2cccc3n(C[C@H]4CC[C@H](CNC(=O)C(F)(F)F)CC4)c(=O)c1n23` [Example 29, 1,2-Dihydro-3-methyl-1-[trans-4-(trifluoroacetylamino)methyl-1-cyclohexylmethyl]-1,4,7b-triazacyclopent[cd]inden-2-one] gave an inhibition at 3 µM in experiment [1] of 76.1%.

Compound `Cc1ccc(S(=O)(=O)NC[C@H]2CC[C@H](Cn3c(=O)c4c(C)nc5cccc3n54)CC2)cc1` [Example 32, 1,2-Dihydro-3-methyl-1-[trans-4-(4-methylphenylsulfonylamino)methyl-1-cyclohexylmethyl]-1,4,7b-triazacyclopent[cd]inden-2-one] showed an inhibition at 1 µM in experiment [1] of 80.3%.
